Reference: the NIST ThermoML archive (doi:10.1016/j.jct.2013.05.014)
Numbers after ± are expanded uncertainties.

How the values were obtained:
[1] = 298.15 K, 101 kPa, Liquid; for viscosity: Capillary tube (Ostwald / Ubbelohde) method; for mass density: Pycnometric method
[2] = xn = mol fraction of the nth substance listed; settings: 298.15 K, 101 kPa, Liquid; for viscosity: Capillary tube (Ostwald / Ubbelohde) method; for mass density: Pycnometric method

CCCCCCCCCC [decane]
[1]
Settings | mass density [kg/m3] | viscosity [mPa·s]
– | 726.35 ± 1 | 0.845 ± 0.032

CCCCCC(C)O (centres undefined) [2-heptanol] + CCCCCCCCCC
[2]
Settings | mass density [kg/m3] | viscosity [mPa·s]
x2 = 0 | 813.74 ± 1 | 5.08 ± 0.11
x2 = 0.0552 | 806.87 ± 1 | 4.25 ± 0.089
x2 = 0.0999 | 801.55 ± 1 | 3.732 ± 0.078
x2 = 0.1555 | 795.15 ± 1 | 3.152 ± 0.066
x2 = 0.1999 | 790.26 ± 1 | 2.74 ± 0.057
x2 = 0.2554 | 784.36 ± 1 | 2.283 ± 0.048
x2 = 0.2999 | 779.83 ± 1 | 1.962 ± 0.041
x2 = 0.3554 | 774.4 ± 1 | 1.614 ± 0.034
x2 = 0.3998 | 770.24 ± 1 | 1.375 ± 0.033
x2 = 0.4555 | 765.23 ± 1 | 1.122 ± 0.033
x2 = 0.4998 | 761.41 ± 1 | 0.954 ± 0.032
x2 = 0.5555 | 756.8 ± 1 | 0.782 ± 0.032
x2 = 0.5999 | 753.27 ± 1 | 0.673 ± 0.032
x2 = 0.6554 | 749.04 ± 1 | 0.57 ± 0.032
x2 = 0.6999 | 745.79 ± 1 | 0.51 ± 0.032
x2 = 0.7553 | 741.87 ± 1 | 0.461 ± 0.032
x2 = 0.8 | 738.84 ± 1 | 0.44 ± 0.032
x2 = 0.8555 | 735.2 ± 1 | 0.432 ± 0.032
x2 = 0.8998 | 732.39 ± 1 | 0.438 ± 0.032
x2 = 0.9553 | 728.98 ± 1 | 0.457 ± 0.032

CCCCC(C)O (centres undefined) [2-hexanol]
[1]
Settings | mass density [kg/m3] | viscosity [mPa·s]
– | 810.84 ± 1 | 4.105 ± 0.085

CCCCCCCCCC [decane] + CCCCC(C)O
[2], x1 = 1
Settings | mass density [kg/m3] | viscosity [mPa·s]
– | 726.35 ± 1 | 0.845 ± 0.032

CCCCCCC(C)O (centres undefined) [2-octanol]
[1]
Settings | mass density [kg/m3] | viscosity [mPa·s]
– | 817.05 ± 1 | 6.429 ± 0.13

CCCCCC(C)O (centres undefined) [2-heptanol]
[1]
Settings | mass density [kg/m3] | viscosity [mPa·s]
– | 813.74 ± 1 | 5.08 ± 0.11

CCCCCCCCCC [decane] + CCCCCC(C)O
[2], x1 = 1
Settings | mass density [kg/m3] | viscosity [mPa·s]
– | 726.35 ± 1 | 0.845 ± 0.032

CCCCC(C)O (centres undefined) [2-hexanol] + CCCCCCCCCC
[2]
Settings | mass density [kg/m3] | viscosity [mPa·s]
x2 = 0 | 810.84 ± 1 | 4.105 ± 0.085
x2 = 0.0555 | 802.94 ± 1 | 3.569 ± 0.074
x2 = 0.0999 | 797.23 ± 1 | 3.17 ± 0.066
x2 = 0.1554 | 790.5 ± 1 | 2.725 ± 0.057
x2 = 0.1998 | 785.43 ± 1 | 2.41 ± 0.05
x2 = 0.2556 | 779.42 ± 1 | 2.062 ± 0.043
x2 = 0.2999 | 774.91 ± 1 | 1.821 ± 0.038
x2 = 0.3555 | 769.55 ± 1 | 1.561 ± 0.033
x2 = 0.3998 | 765.52 ± 1 | 1.384 ± 0.033
x2 = 0.4554 | 760.72 ± 1 | 1.198 ± 0.033
x2 = 0.4998 | 757.1 ± 1 | 1.076 ± 0.032
x2 = 0.5554 | 752.79 ± 1 | 0.952 ± 0.032
x2 = 0.5997 | 749.54 ± 1 | 0.875 ± 0.032
x2 = 0.6555 | 745.66 ± 1 | 0.802 ± 0.032
x2 = 0.6999 | 742.72 ± 1 | 0.76 ± 0.032
x2 = 0.7555 | 739.25 ± 1 | 0.725 ± 0.032
x2 = 0.7998 | 736.62 ± 1 | 0.708 ± 0.032
x2 = 0.8555 | 733.48 ± 1 | 0.699 ± 0.032
x2 = 0.8999 | 731.11 ± 1 | 0.698 ± 0.032
x2 = 0.9555 | 728.29 ± 1 | 0.703 ± 0.032

CCCCCCC(C)O (centres undefined) [2-octanol] + CCCCCCCCCC
[2]
Settings | mass density [kg/m3] | viscosity [mPa·s]
x2 = 0 | 817.05 ± 1 | 6.429 ± 0.13
x2 = 0.0554 | 810.77 ± 1 | 5.222 ± 0.11
x2 = 0.0998 | 805.83 ± 1 | 4.638 ± 0.096
x2 = 0.1554 | 799.74 ± 1 | 3.972 ± 0.082
x2 = 0.1999 | 794.99 ± 1 | 3.491 ± 0.072
x2 = 0.2554 | 789.2 ± 1 | 2.951 ± 0.061
x2 = 0.2999 | 784.67 ± 1 | 2.564 ± 0.053
x2 = 0.3555 | 779.16 ± 1 | 2.136 ± 0.044
x2 = 0.3998 | 774.9 ± 1 | 1.836 ± 0.038
x2 = 0.4554 | 769.69 ± 1 | 1.509 ± 0.033
x2 = 0.4999 | 765.64 ± 1 | 1.284 ± 0.033
x2 = 0.5555 | 760.74 ± 1 | 1.046 ± 0.032
x2 = 0.5998 | 756.94 ± 1 | 0.889 ± 0.032
x2 = 0.6555 | 752.3 ± 1 | 0.73 ± 0.032
x2 = 0.7 | 748.7 ± 1 | 0.63 ± 0.032
x2 = 0.7554 | 744.32 ± 1 | 0.538 ± 0.032
x2 = 0.7998 | 740.91 ± 1 | 0.487 ± 0.032
x2 = 0.8554 | 736.74 ± 1 | 0.45 ± 0.032
x2 = 0.8999 | 733.47 ± 1 | 0.438 ± 0.032
x2 = 0.9554 | 729.48 ± 1 | 0.445 ± 0.032

CCCCCCCCCC [decane] + CCCCCCC(C)O
[2], x1 = 1
Settings | mass density [kg/m3] | viscosity [mPa·s]
– | 726.35 ± 1 | 0.845 ± 0.032
